Results from paper PMC8885691, “Leveraging the multivalent p53 peptide-MdmX interaction to guide the improvement of small molecule inhibitors” (Nature Communications, 2022).
Where no end group is shown, it is not given here.

Experiments:
[1] = test system: HCT116, RKO, and H460a cells; experiment: Real-time RT-qPCR of p21 and p53 genes in cancer cells with wild-type p53; type: cell-based; details: H203 for 8 h
Description: […]. […] […]. Total RNAs were extracted using a Trizol protocol with RNeasy® Mini kit from Qiagen (TX, USA). The concentration of RNAs was measured with Nanodrop-2000c. Real-time qPCR was performed with a BaldStar TaqMan One-Step RT-qPCR Kit from Biorab (Beijing, China) on a BioRad CFX96 qPCR instrument (CA, USA). The primers and probes for qPCR were designed using Primer Express 3.0 software (Applied Biosystems, USA). […]. TaqMan probes were labeled with 5′-FAM and 3′-TAMRA. All primers and probes were synthesized by GenScript (Nanjing, China). Samples were analyzed in triplicate and normalized to the control.

N-MdmX = molecular target: T1, N-MdmX (Homo sapiens, UniProt O15151); experiment: Isothermal titration calorimetry (ITC) assay
T1 sequence (O15151 22-110): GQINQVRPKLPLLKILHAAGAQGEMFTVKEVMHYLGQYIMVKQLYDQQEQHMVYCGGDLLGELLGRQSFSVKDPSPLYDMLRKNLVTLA
Description: The protein−ligand interactions were characterized using a model ITC-200 isothermal titration microcalorimeter (Malvern, USA) at 25 °C. A typical experiment included the injection of 19 aliquots (2.0 μL each) containing an ~0.2 mM ligand solution into an ~10–20 μM protein solution in the ITC cell (volume of ∼200 μL). Titrations were performed with a stirring speed of 750 rpm and a spacing time of 120 s. A control experiment was run by injecting a ligand solution into buffer instead of a protein solution in the cell. Before data analysis, the control values were subtracted from the experimental data. The binding isotherms were integrated to give the enthalpy change (ΔH) plotted as a function of the molar ratio of the ligand. When necessary, prior to the integration procedures, the baseline was manually adjusted to minimize the background noise. The Origin 7.0-based software was used for data analysis with the one-set-of-binding-sites model. The disassociation constant of Kd was determined from the slope of the central linear part of the fractional saturation curve. The Gibbs free energy change (ΔG) and the entropy change (ΔS) were calculated on the basis of the following equations: ΔG =−RT ln Kd = ΔH − TΔS, where ΔH was derived from the original ΔH/molar ratio plots.

Row | Molecule | transcription of the p53 gene [1] | transcription of p21 ([1]; all three cell lines) | Kd (N-MdmX)
1 | O=C1CN(C(=O)N2C(c3ccc4c(c3)N(c3ccccc3)C(=O)CNC4=O)=N[C@@H](c3ccc(Cl)cc3)[C@H]2c2ccc(Cl)cc2)CCN1 [H203] | unaffected | increased in a dose-dependent manner | 
2 | WKLLPEN [p53p^ΔF19] |  |  | 20.1 ± 3.25 µM
